Patent US20230295109A1, “PYRIDINONE COMPOUNDS FOR THE TREATMENT OF AUTOIMMUNE DISEASE” (F. Hoffmann-La Roche AG, priority 2020, published 2023)

Target: T1, human TLR8 (Homo sapiens, UniProt Q9NR97)
T1 construct: host or cells: HEK293 (HEK-Blue hTLR8)
T1 sequence (Q9NR97 27-1041): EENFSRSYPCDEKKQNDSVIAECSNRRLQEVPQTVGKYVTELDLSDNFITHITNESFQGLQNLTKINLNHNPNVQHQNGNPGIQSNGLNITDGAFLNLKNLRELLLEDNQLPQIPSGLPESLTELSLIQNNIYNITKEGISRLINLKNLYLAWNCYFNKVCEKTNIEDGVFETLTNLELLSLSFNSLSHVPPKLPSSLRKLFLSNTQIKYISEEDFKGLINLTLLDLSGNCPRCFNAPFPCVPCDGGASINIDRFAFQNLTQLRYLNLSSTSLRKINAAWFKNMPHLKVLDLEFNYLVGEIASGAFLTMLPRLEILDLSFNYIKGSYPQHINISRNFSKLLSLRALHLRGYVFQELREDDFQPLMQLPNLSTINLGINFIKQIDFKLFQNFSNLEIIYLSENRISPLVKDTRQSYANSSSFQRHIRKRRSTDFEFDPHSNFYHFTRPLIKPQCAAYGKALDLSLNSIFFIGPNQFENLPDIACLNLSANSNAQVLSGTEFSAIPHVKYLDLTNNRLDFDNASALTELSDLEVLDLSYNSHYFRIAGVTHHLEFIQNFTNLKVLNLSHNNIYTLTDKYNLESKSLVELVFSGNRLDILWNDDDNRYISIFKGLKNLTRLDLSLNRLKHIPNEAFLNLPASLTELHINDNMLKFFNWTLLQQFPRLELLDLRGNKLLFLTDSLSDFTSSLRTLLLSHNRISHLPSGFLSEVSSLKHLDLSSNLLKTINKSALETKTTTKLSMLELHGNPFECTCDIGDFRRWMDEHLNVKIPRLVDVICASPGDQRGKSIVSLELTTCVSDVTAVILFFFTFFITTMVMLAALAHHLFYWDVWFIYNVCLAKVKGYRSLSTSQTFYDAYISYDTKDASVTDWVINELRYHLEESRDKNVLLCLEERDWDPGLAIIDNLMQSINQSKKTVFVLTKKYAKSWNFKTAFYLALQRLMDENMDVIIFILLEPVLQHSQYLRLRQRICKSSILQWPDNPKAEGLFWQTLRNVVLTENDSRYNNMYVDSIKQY
Assay: HEK293-Blue-hTLR-8 cells assay
Format: cell-based
Conditions: HEK293-Blue-hTLR8 cells, R848 stimulation, 20 hrs, SEAP reporter; read-out: HEK/hTLR8 IC50
Text: A stable HEK293-Blue-hTLR-8 cell line was purchased from InvivoGen (Cat.#: hkb-htlr8, San Diego, California, USA). These cells were originally designed for studying the stimulation of human TLR8 by monitoring the activation of NF-κB. A SEAP (secreted embryonic alkaline phosphatase) reporter gene was placed under the control of the IFN-β minimal promoter fused to five NF-κB and AP-1-binding sites. The SEAP was induced by activating NF-κB and AP-1 via stimulating HEK-Blue hTLR8 cells with TLR8 ligands. Therefore the reporter expression was declined by TLR8 antagonist under the stimulation of a ligand, such as R848, for incubation of 20 hrs. The cell culture supernatant SEAP reporter activity was determined using QUANTI-Blue™ kit (Cat.#: rep-qb1, Invivogen, San Diego, Ca, USA) at a wavelength of 640 nm, a detection medium that turns purple or blue in the presence of alkaline phosphatase.
HEK293-Blue-hTLR8 cells were incubated at a density of 250,000~450,000 cells/mL in a volume of 170 µL in a 96-well plate in Dulbecco’s Modified Eagle’s medium (DMEM) containing 4.5 g/L glucose, 50 U/mL penicillin, […], […], 2 mM L-glutamine, 10% (v/v) heat-inactivated fetal bovine serum with addition of 20 µL test compound in a serial dilution in the presence of final DMSO at 1% and 10 µL of 60uM R848 in above DMEM, perform incubation under 37° C. in a CO2 incubator for 20 hrs. Then 20 µL of the supernatant from each well was incubated with 180 µL Quanti-blue substrate solution at 37° C. for 2 hrs and the absorbance was read at 620 \~655 nm using a spectrophotometer. The signaling pathway that TLR8 activation leads to downstream NF-κB activation has been widely accepted, and therefore similar reporter assay was modified for evaluating TLR8 antagonist.

Going from `CCc1nc(N2CCN(Cc3cnc(N4CC5(CNCCO5)C4)nc3)CC2)ccc1-c1cc(C)c(=O)n(C)c1` [Example 1, 5-[2-ethyl-6-[4-[[2-(5-oxa-2,8-diazaspiro[3.5]nonan-2-yl)pyrimidin-5-yl]methyl]piperazin-1-yl]-3-pyridyl]-1,3-dimethyl-pyridin-2-one] to `Cc1cc(-c2ccc(N3CCN(Cc4cnc(N5CC6(CNCCO6)C5)nc4)CC3)nc2C(C)C)cn(C)c1=O` [Example 6, 5-[2-isopropyl-6-[4-[[2-(5-oxa-2,8-diazaspiro[3.5]nonan-2-yl)pyrimidin-5-yl]methyl]piperazin-1-yl]-3-pyridyl]-1,3-dimethyl-pyridin-2-one], the IC50 falls from 0.7 nM to 0.3 nM (2.3-fold).

`CCc1nc(N2CCN(Cc3ccc(N4CC5(CNCCO5)C4)nc3)CC2)ccc1-c1cc(C)c(=O)n(C)c1` [Example 2, 5-[2-ethyl-6-[4-[[6-(5-oxa-2,8-diazaspiro[3.5]nonan-2-yl)-3 pyridyl]methyl]piperazin-1-yl]-3-pyridyl]-1,3-dimethyl-pyridin-2-one] and `Cc1cc(-c2ccc(N3CCN(Cc4ccc(N5CCNCC5)nc4)CC3)nc2C(C)C)cn(C)c1=O` [Example 11, 5-[2-isopropyl-6-[4-[(6-piperazin-1-yl-3-pyridyl)methyl]piperazin-1-yl]-3-pyridyl]-1,3-dimethyl-pyridin-2-one] are the same in IC50: 0.3 nM for the first, 0.3 nM for the second.

`CCc1nc(N2CCN(Cc3cnc(N4CC(C)(N)C4)nc3)CC2)ccc1-c1cc(C)c(=O)n(C)c1` [Example 3, 5-[6-[4-[[2-(3-amino-3-methyl-azetidin-1-yl)pyrimidin-5-yl]methyl]piperazin-1-yl]-2-ethyl-3-pyridyl]-1,3-dimethyl-pyridin-2-one] and `Cc1cc(-c2ccc(N3CCN(Cc4cnc(N5CC(C)(N)C5)nc4)CC3)nc2C(C)C)cn(C)c1=O` [Example 10, 5-[6-[4-[[2-(3-amino-3-methyl-azetidin-1-yl)pyrimidin-5-yl]methyl]piperazin-1-yl]-2-isopropyl-3-pyridyl]-1,3-dimethyl-pyridin-2-one] are the same in IC50: 0.3 nM for the first, 0.3 nM for the second.

Compared with `CCc1nc(N2CCN(Cc3cnc(N4CCOC[C@@H](N)C4)nc3)CC2)ccc1-c1cc(C)c(=O)n(C)c1` [Example 4, 5-[6-[4-[[2-[(6S)-6-amino-1,4-oxazepan-4-yl]pyrimidin-5-yl]methyl]piperazin-1-yl]-2-ethyl-3-pyridyl]-1,3-dimethyl-pyridin-2-one], `Cc1cc(-c2ccc(N3CCN(Cc4cnc(N5CCNCC5)nc4)CC3)nc2C(C)C)cn(C)c1=O` [Example 9, 5-[2-isopropyl-6-[4-[(2-piperazin-1-ylpyrimidin-5-yl)methyl]piperazin-1-yl]-3-pyridyl]-1,3-dimethyl-pyridin-2-one] is 2-fold lower in IC50: 0.6 nM for the first, 0.3 nM for the second. The second is the more potent here.

`CCc1nc(N2CCN(Cc3ccc(N4CCNCC4)cc3)CC2)ccc1-c1cc(C)c(=O)n(C)c1` [Example 5, 5-[2-ethyl-6-[4-[(4-piperazin-1-ylphenyl)methyl]piperazin-1-yl]-3-pyridyl]-1,3-dimethyl-pyridin-2-one] and `Cc1cc(-c2ccc(N3CCN(Cc4ccc(N5CCNCC5)cc4)CC3)nc2C(C)C)cn(C)c1=O` [Example 13, 5-[2-isopropyl-6-[4-[(4-piperazin-1-ylphenyl)methyl]piperazin-1-yl]-3-pyridyl]-1,3-dimethyl-pyridin-2-one] are the same in IC50: 0.3 nM for the first, 0.3 nM for the second.

`Cc1cc(-c2ccc(N3CCN(Cc4ccc(N5CCNCC5)cn4)CC3)nc2C(C)C)cn(C)c1=O` [Example 7, 5-[2-isopropyl-6-[4-[(5-piperazin-1-yl-2-pyridyl)methyl]piperazin-1-yl]-3-pyridyl]-1,3-dimethyl-pyridin-2-one] and `Cc1cc(-c2ccc(N3CCN(Cc4cnc(N5CCNCC5)cn4)CC3)nc2C(C)C)cn(C)c1=O` [Example 8, 5-[2-isopropyl-6-[4-[(5-piperazin-1-ylpyrazin-2-yl)methyl]piperazin-1-yl]-3-pyridyl]-1,3-dimethyl-pyridin-2-one] are the same in IC50: 0.3 nM for the first, 0.3 nM for the second.

Compared with `Cc1cc(-c2ccc(N3CCN(Cc4ncc(N5CCNCC5)cn4)CC3)nc2C(C)C)cn(C)c1=O` [Example 12, 5-[2-isopropyl-6-[4-[(5-piperazin-1-ylpyrimidin-2-yl)methyl]piperazin-1-yl]-3-pyridyl]-1,3-dimethyl-pyridin-2-one], `Cc1cc(-c2ccc(N3CCN(Cc4cccc(N5CCNCC5)c4)CC3)nc2C(C)C)cn(C)c1=O` [Example 14, 5-[2-isopropyl-6-[4-[(3-piperazin-1-ylphenyl)methyl]piperazin-1-yl]-3-pyridyl]-1,3-dimethyl-pyridin-2-one] is 2.3-fold lower in IC50: 0.7 nM for the first, 0.3 nM for the second.

`Cc1cc(-c2ccc(N3CCN(c4ccc5c(n4)CCNC5)CC3)nc2C(C)C)cn(C)c1=O` [Example 15, 5-[2-isopropyl-6-[4-(5,6,7,8-tetrahydro-1,6-naphthyridin-2-yl)piperazin-1-yl]-3-pyridyl]-1,3-dimethyl-pyridin-2-one] and `Cc1cc(-c2ccc(N3CCN4CCN(c5ccc(N6CCNCC6)nc5)CC4C3)nc2C(C)C)cn(C)c1=O` (stereo not shown) [Example 16, 5-[2-isopropyl-6-[8-(6-piperazin-1-yl-3-pyridyl)-3,4,6,7,9,9a-hexahydro-1H-pyrazino[1,2-a]pyrazin-2-yl]-3-pyridyl]-1,3-dimethyl-pyridin-2-one] are the same in IC50: 2 nM for the first, 2 nM for the second.

Compared with `Cc1cc(-c2ccc(N3CCN(Cc4ccc(N5CCNCC5)cc4)CC3)nc2C(F)F)cn(C)c1=O` [Example 17, 5-[2-(difluoromethyl)-6-[4-[(4-piperazin-1-ylphenyl)methyl]piperazin-1-yl]-3-pyridyl]-1,3-dimethyl-pyridin-2-one], `Cc1cc(-c2ccc(N3CCC(N4CCNCC4)CC3)nc2C(C)C)cn(C)c1=O` [Example 18, 5-[2-isopropyl-6-(4-piperazin-1-yl-1-piperidyl)-3-pyridyl]-1,3-dimethyl-pyridin-2-one] is 2.7-fold higher in IC50: 0.3 nM for the first, 0.8 nM for the second.

Work on `CCc1nc(N2CCN3CCN(c4cnc(N5CC6(CNCCO6)C5)nc4)CC3C2)ccc1-c1cc(C)c(=O)n(C)c1` (stereo not shown) [Example 19, 5-[2-ethyl-6-[2-[2-(5-oxa-2,8-diazaspiro[3.5]nonan-2-yl)pyrimidin-5-yl]-3,4,6,7,9,9a-hexahydro-1H-pyrazino[1,2-a]pyrazin-8-yl]-3-pyridyl]-1,3-dimethyl-pyridin-2-one] yielded an IC50 of 5.9 nM.
